Measured values: ChEMBL document CHEMBL1152299, “Indazole-based liver X receptor (LXR) modulators with maintained atherosclerotic lesion reduction activity but diminished stimulation of hepatic triglyceride synthesis” (J Med Chem, 2008)
pEC50, pIC50: −log10 of the molar value.

How the values were obtained:
[1] = biological target: T1, Oxysterols receptor LXR-beta (Homo sapiens, UniProt P55055); experiment: Agonist activity at human recombinant LXRbeta ligand binding domain in human HuH7 cells co-transfected with fused Gal4-DBD by transactivation assay; assay type: cell-based, Huh-7
T1 sequence (P55055 whole entry): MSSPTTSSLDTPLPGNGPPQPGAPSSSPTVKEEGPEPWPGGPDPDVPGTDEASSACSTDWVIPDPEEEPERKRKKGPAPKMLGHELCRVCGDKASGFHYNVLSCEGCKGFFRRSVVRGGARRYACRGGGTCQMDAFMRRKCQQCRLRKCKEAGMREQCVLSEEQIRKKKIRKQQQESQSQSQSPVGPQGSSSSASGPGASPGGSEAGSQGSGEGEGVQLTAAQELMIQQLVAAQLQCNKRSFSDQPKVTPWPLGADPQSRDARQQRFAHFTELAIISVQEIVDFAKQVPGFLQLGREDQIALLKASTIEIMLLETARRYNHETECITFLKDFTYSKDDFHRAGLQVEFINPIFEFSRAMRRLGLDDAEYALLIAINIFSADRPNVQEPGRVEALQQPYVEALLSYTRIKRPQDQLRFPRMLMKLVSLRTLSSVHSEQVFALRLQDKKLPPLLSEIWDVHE

Glucocorticoid receptor = biological target: T2, Glucocorticoid receptor (Homo sapiens, UniProt P04150); experiment: Displacement of radiolabeled Dexamethasone from human glucocorticoid receptor by filter paper assay
T2 sequence (P04150 whole entry): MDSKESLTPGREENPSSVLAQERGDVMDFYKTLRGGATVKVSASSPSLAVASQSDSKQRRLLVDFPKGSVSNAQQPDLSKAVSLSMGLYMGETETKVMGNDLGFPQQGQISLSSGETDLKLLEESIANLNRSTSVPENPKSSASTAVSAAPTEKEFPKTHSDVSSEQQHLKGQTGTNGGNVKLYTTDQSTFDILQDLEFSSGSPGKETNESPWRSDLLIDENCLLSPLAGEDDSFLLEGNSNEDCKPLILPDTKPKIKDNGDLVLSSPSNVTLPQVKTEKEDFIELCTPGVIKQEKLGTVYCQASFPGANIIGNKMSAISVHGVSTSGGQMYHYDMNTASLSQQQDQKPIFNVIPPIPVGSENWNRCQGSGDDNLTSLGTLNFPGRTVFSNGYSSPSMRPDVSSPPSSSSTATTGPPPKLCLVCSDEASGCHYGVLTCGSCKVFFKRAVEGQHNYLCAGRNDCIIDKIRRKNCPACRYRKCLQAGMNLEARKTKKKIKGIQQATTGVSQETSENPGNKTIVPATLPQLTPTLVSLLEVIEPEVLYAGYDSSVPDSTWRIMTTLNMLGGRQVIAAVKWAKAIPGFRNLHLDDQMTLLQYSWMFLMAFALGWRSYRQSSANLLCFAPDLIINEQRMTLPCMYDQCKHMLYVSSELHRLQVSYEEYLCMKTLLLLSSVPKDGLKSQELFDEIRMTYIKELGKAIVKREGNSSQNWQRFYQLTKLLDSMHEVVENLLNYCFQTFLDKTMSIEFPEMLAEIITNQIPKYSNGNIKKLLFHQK

[2] = biological target: T3, Mineralocorticoid receptor (Homo sapiens, UniProt P08235); experiment: Displacement of radiolabeled aldosterone from human mineralocorticoid receptor by filter paper assay
T3 sequence (P08235 whole entry): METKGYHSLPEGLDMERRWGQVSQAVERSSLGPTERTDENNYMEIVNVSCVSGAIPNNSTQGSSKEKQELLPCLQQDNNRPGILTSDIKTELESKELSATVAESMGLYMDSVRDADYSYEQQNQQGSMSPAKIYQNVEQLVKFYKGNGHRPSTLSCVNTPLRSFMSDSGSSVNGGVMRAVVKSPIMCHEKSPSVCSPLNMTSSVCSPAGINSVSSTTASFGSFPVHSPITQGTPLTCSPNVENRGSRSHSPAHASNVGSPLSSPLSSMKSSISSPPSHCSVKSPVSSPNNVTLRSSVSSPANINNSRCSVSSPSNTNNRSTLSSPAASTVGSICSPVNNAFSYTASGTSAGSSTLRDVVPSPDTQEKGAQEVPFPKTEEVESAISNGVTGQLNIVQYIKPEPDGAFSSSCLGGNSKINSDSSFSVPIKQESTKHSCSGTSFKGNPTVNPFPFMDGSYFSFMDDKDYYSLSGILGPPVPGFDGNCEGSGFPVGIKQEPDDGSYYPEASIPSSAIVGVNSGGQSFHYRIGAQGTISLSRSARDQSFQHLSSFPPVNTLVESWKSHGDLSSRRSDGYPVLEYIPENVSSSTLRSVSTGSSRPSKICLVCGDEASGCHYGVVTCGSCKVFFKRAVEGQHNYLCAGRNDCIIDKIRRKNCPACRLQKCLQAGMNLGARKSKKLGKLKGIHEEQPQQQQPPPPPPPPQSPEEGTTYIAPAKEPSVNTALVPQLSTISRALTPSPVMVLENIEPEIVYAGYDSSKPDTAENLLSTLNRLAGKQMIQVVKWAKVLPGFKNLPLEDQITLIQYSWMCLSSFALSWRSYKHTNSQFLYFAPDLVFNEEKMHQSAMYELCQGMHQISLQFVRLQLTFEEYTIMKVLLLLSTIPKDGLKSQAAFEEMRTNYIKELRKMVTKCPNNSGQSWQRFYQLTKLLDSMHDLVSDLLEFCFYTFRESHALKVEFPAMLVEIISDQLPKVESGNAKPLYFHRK

[3] = Terminal half life in C57 mouse at 10 mg/kg, po; assay type: ADME, organism-based; parameters: dose 10 mg/kg, route oral; settings: in vivo, read-out: beta t1/2 (converted)
[4] = AUC (0 to infinity) in C57 mouse at 1 mg/kg, iv and 10 mg/kg, po; assay type: ADME, organism-based; settings: plasma
Mus musculus [5] = experiment: Decrease in total cholesterol level in LDL receptor knockout C57BL/6 mouse plasma at 15 mg/kg administered with Western diet after 8 weeks; assay type: functional; parameters: scale not given: the % may be the effect or the level left
Mus musculus [6] = experiment: Reduction in atherosclerotic lesion size in LDL receptor knockout C57BL/6 mouse thoracic aorta at 15 mg/kg administered with Western diet after 8 weeks by oil Red-O staining; assay type: functional; parameters: scale not given: the % may be the effect or the level left

pEC50 [1] | pIC50 (Glucocorticoid receptor) | pIC50 [2] | half-life [3] [h] | AUC(0-inf) [4] [ng·h/mL] | Compound | Activity (Mus musculus [5]) [%] | Activity (Mus musculus [6]) [%]
5.44 | 6.00 | – | – | – | Fc1ccc(-c2c3cccc(C(F)(F)F)c3nn2Cc2ccc(F)cc2Cl)cc1 [LXR-623] | – | –
5.38 | 5.14 | < 5.00 | 5.8 | 3100 | Fc1ccc(-c2c3cccc(C(F)(F)F)c3nn2Cc2ccccc2F)cc1 | 10 | 28
